This is an account of results in BindingDB's records for doi:10.1016/S0960-894X(01)80292-4 (1994).

pIC50: −log10 of the molar value. Bounds are passed on as bounds.

For assay [1], the target named is T1, Human immunodeficiency virus type 1 protease (Human immunodeficiency virus 1, UniProt Q72874). Put plainly: (§1) Inhibitory activity was evaluated against HIV-1 protease.
The target in assay [2] is T1, Human immunodeficiency virus type 1 protease. The description is as §1. The source holds these as a separate data set.

For the compound `OC1N=C(Cc2ccccc2)P(O)(O)=C(Cc2ccccc2)N1` (configuration not stated) [4,6-Dibenzyl-5-hydroxy-5-oxo-5lambda*5*-[1,3,5]diazaphosphinan-2-one], the pIC50 in assay [1] and in assay [2] was less than 4.00 in each case.

The term pIC50 denotes −log10 of the IC50, conventionally taken in molar units. Higher therefore signals a small IC50.
